# Source: patent US20180116993A1, “MODULATORS OF FARNESOID X RECEPTOR AND METHODS FOR THE USE THEREOF” (XIAMEN UNIVERSITY, priority 2015, published 2018)
# Read-outs that look alike come from different tables or passages of the source.
# Assays:
# [1] = target: T1, FXR ligand binding domain (LBD) (Homo sapiens, UniProt Q96RI1); assay: AlphaScreen assay: FXR LBD recruitment of coregulator peptide motifs (SRC2-3, SRC1-2); format: biochemical
# T1 construct: made in house
# T1 sequence (Q96RI1 262-486 limits assumed): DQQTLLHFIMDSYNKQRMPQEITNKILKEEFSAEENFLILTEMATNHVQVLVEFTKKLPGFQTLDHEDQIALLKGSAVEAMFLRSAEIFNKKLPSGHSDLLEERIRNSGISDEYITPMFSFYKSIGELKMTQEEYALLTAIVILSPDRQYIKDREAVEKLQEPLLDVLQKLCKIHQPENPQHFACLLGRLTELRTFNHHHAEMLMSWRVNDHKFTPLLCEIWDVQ
# full-length FXR = target: T2, full-length FXR (Homo sapiens, UniProt Q96RI1); assay: Cell-based FXR transactivation, EcRE luciferase reporter in COS-7 cells; conditions: for Cell-based FXR transactivation Fold changes by 5 μM compound: positive: induction, minus: repression
# T2 construct: The cells were co-transfected with plasmids encoding full-length FXR and the cognate luciferase reporter EcRE-Luc; expressed in transfected cells; host or cells: COS-7
# T2 sequence (Q96RI1 1-486): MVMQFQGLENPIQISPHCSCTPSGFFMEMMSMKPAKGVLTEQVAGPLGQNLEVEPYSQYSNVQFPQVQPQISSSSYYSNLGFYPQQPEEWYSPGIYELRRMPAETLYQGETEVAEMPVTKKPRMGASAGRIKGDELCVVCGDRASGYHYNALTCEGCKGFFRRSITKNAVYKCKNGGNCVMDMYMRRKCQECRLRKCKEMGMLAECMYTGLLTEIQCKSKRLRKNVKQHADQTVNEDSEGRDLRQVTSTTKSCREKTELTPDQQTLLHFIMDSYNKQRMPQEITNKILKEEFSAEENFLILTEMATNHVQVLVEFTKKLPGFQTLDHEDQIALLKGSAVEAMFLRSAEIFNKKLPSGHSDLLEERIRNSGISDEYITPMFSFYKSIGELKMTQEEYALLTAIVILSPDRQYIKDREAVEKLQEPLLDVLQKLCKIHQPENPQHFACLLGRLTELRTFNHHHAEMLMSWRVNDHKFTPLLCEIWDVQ
# Method in brief: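 COS-7 cells were transiently cotransfected with full-length FXR, EcRE-Luc reporter and a renilla control. Ligands were added 5 h after transfection, and cells were harvested 24 h later. Firefly luciferase was normalized to renilla in a dual-luciferase read-out.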
# [2] = system: human colorectal adenocarcinoma HCT15 cells; assay: MTT cell viability assay, HCT15; format: cell-based; conditions: 48 h, read-out: Cell viability as a percentage of the cells treated with DMSO, HCT15; for viability at 20 µM: HCT-15, 20 uM; for viability at 40 µM: HCT-15, 40 uM
# Method in brief: (§1)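 DMEM + 10% FBS culture; compound 20 uM or 40 uM; MTT read-out; viability as % of DMSO control.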
# [3] = system: RA-resistant human colon cancer HCT116 cells; assay: MTT cell viability assay, HCT116; format: cell-based; conditions: 48 h, read-out: Cell viability as a percentage of the cells treated with DMSO, HCT116; for viability at 20 µM: HCT-116, 20 uM; for viability at 40 µM: HCT-116, 40 uM
# Method in brief: as §1
# [4] = system: human hepatoma HepG2 cells; assay: MTT cell viability assay, HepG2; format: cell-based; conditions: 48 h, read-out: Cell viability as a percentage of the cells treated with DMSO, HepG2
# Method in brief: as §1
# [5] = system: human cervical carcinoma Hela cells; assay: MTT cell viability assay, Hela; format: cell-based; conditions: 48 h, read-out: Cell viability as a percentage of the cells treated with DMSO, Hela
# Method in brief: as §1
# [6] = system: human breast cancer MCF7 cells; assay: MTT cell viability assay, MCF-7; format: cell-based; conditions: 48 h, read-out: Cell viability as a percentage of the cells treated with DMSO, MCF-7
# Method in brief: as §1
# [7] = SRC1-2 peptide, Table 2, read-out: EC50 (μM) of FXR binding by AlphaScreen assay recruit SRC1-2
# [8] = SRC2-3 peptide, Table 2, read-out: EC50 (μM) of FXR binding by AlphaScreen assay recruit SRC2-3
# [9] = EcRE luciferase reporter, Table 2
SMILES,"EC50 [1, 7] [µM]","EC50 [1, 8] [µM]","Cell-based FXR transactivation Fold changes by 5 μM compound (full-length FXR; 5 μM compound, Table 2)",EC50 (full-length FXR; [9]) [µM],"EC50 ([1]; SRC1-2 peptide, Table 1, read-out: EC50 (μM) of FXR binding by AlphaScreen assay recruit SRC1-2) [µM]","EC50 ([1]; SRC2-3 peptide, Table 1, read-out: EC50 (μM) of FXR binding by AlphaScreen assay recruit SRC2-3) [µM]","fold induction at 5 µM (full-length FXR; 5 μM compound, EcRE luciferase reporter, Table 1)","EC50 (full-length FXR; EcRE luciferase reporter, Table 1) [µM]",viability at 20 µM [2] [%],viability at 40 µM [2] [%],viability at 20 µM [3] [%],viability at 40 µM [3] [%],viability at 20 µM [4] [%],viability at 40 µM [4] [%],viability at 20 µM [5] [%],viability at 40 µM [5] [%],viability at 20 µM [6] [%],viability at 40 µM [6] [%]
"CC1(C)C2CCC1(C)C(OC(=O)C1CCC(O)CC1)C2 (stereo not drawn) [XD-20, 1,7,7-trimethyl-bicyclo[2.2.1]-heptan-2-yl 4-hydroxy-cyclohexane-carboxylate]",1 to 10,1 to 10,6,1 to 10,,,,,100 ± 4,84 ± 4,79 ± 2,70 ± 7,100 ± 5,100 ± 2,100 ± 5,96 ± 1,85,82 ± 1
"CC1(C)C2CCC1(C)C(OC(=O)c1ccc(F)cc1)C2 (stereo not drawn) [XD-0, 1,7,7-trimethyl-bicyclo[2.2.1]-heptan-2-yl 4-fluorobenzoate]",1 to 10,1 to 10,5,1 to 10,,,,,81 ± 4,56 ± 2,95 ± 4,62 ± 6,81 ± 2,76 ± 7,90,71 ± 3,100 ± 2,85
C/C1=C\CCC(C)(O)/C=C/C(C(C)C)C(OC(=O)c2ccc(O)cc2)C1 (stereo not drawn) [Feroline],,,,,< 1,< 1,> 10,< 1,100 ± 2,76 ± 6,100 ± 5,80 ± 2,84,65 ± 3,83,67 ± 3,92 ± 13,86 ± 12
"Cc1cc(C(=O)OC2CCC3CCCCC3C2)ccc1[N+](=O)[O-] (stereo not drawn) [XD-35, decahydro-naphthalen-2-yl 3-methyl-4-nitro-benzoate]",,1 to 10,2,1 to 10,,,,,100 ± 2,93 ± 2,95 ± 2,93 ± 2,100 ± 2,93 ± 2,94 ± 2,93 ± 2,100 ± 2,100 ± 2
"CC1(C)C2CCC1(C)C(OC(=O)c1ccncc1)C2 (stereo not drawn) [XD-6, 1,7,7-trimethyl-bicyclo[2.2.1]-heptan-2-yl isonicotinate]",1 to 10,1 to 10,>10,1 to 10,,,,,57 ± 2,42 ± 3,61 ± 1,45 ± 2,99 ± 1,70 ± 2,100 ± 1,76 ± 1,100 ± 8,61

# Now from value to compound, other results behind:
"EC50 [1, 7] [µM]","EC50 [1, 8] [µM]","Cell-based FXR transactivation Fold changes by 5 μM compound (full-length FXR; 5 μM compound, Table 2)",EC50 (full-length FXR; [9]) [µM],"EC50 ([1]; SRC1-2 peptide, Table 1, read-out: EC50 (μM) of FXR binding by AlphaScreen assay recruit SRC1-2) [µM]","EC50 ([1]; SRC2-3 peptide, Table 1, read-out: EC50 (μM) of FXR binding by AlphaScreen assay recruit SRC2-3) [µM]","fold induction at 5 µM (full-length FXR; 5 μM compound, EcRE luciferase reporter, Table 1)","EC50 (full-length FXR; EcRE luciferase reporter, Table 1) [µM]",SMILES,viability at 20 µM [2] [%],viability at 40 µM [2] [%],viability at 20 µM [3] [%],viability at 40 µM [3] [%],viability at 20 µM [4] [%],viability at 40 µM [4] [%],viability at 20 µM [5] [%],viability at 40 µM [5] [%],viability at 20 µM [6] [%],viability at 40 µM [6] [%]
< 1,< 1,>10,< 1,,,,,"CC1(C)C2CCC1(C)C(OC(=O)c1ccc(N)cc1)C2 (stereo not drawn) [XD-5, 1,7,7-trimethyl-bicyclo[2.2.1]-heptan-2-yl 4-aminobenzoate]",80 ± 4,30 ± 4,88 ± 2,30 ± 3,95 ± 1,40 ± 1,93 ± 4,46 ± 3,100 ± 3,20
< 0.5,< 0.5,3,< 1,,,,,"Cc1cc(C(=O)OC2CCC3CCCCC3C2)ccc1O (stereo not drawn) [XD-29, decahydro-naphthalen-2-yl 4-hydroxy-3-methylbenzoate]",72 ± 2,52 ± 2,100 ± 2,96 ± 2,100 ± 2,98 ± 2,96 ± 2,90 ± 2,100 ± 2,88
< 1,< 1,>10,< 1,,,,,"Cc1cc(C(=O)OC2CC3CCC2(C)C3(C)C)ccc1N (stereo not drawn) [XD-4, 1,7,7-trimethyl-bicyclo[2.2.1]-heptan-2-yl 4-amino-3-methylbenzoate]",79 ± 2,41 ± 3,81 ± 2,27 ± 1,90 ± 5,42 ± 1,95 ± 4,36 ± 2,100 ± 9,23
< 1,< 1,4,< 1,,,,,"CC1(C)C2CCC1(C)C(OC(=O)c1ccc(F)c(Br)c1)C2 (stereo not drawn) [XD-13, 1,7,7-trimethyl-bicyclo[2.2.1]-heptan-2-yl 3-bromo-4-fluoro-benzoate]",100 ± 2,71 ± 3,100 ± 2,70 ± 5,92 ± 3,86 ± 1,100 ± 3,96 ± 1,100 ± 7,100 ± 1
< 0.5,< 0.5,−30,< 1,,,,,"Nc1ccc(C(=O)OC2CCC3CCCCC3C2)cc1 (stereo not drawn) [XD-23, decahydro-naphthalen-2-yl 4-aminobenzoate]",81 ± 2,48 ± 2,75 ± 2,72 ± 2,100 ± 2,100 ± 2,100 ± 2,95 ± 3,100 ± 2,98 ± 2
< 0.5,< 0.5,3,< 1,,,,,"O=C(OC1CCC2CCCCC2C1)c1ccc(O)cc1 (stereo not drawn) [XD-28, decahydro-naphthalen-2-yl 4-hydroxy-benzoate]",99 ± 4,81 ± 4,100 ± 4,88 ± 4,100 ± 4,96 ± 4,94 ± 4,92 ± 4,100 ± 4,98 ± 4
